Data from patent US10987345B2, “Method for assessing the efficacy of IMiDs and composition or combination for use in treating IMiD sensitive diseases” (Klinikum Rechts Der Isar Der Technischen Universitat Munchen, priority 2014, dated 2021).

Columns and labels:
[1] = system: CD147; test: Pulse chase analysis of CD147 protein maturation in MM1S cells; assay type: cell-based, human; conditions: 35S-Met/Cys pulse-chase
Experimental: In a complementary approach using pulse-chase analysis, CD147 protein maturation from the immature core-glycosylated to the mature high-glycosylated form necessary for membrane localization was investigated. […] Importantly, treatment with MLN4924, an inhibitor of Cullin-RING ubiquitin ligases, had no effect on CD147 stability or processing, thereby further underscoring a ubiquitin-independent effect of CRBN on CD147 (FIG. 13h).
Labelling of MM1S cells with ^35S-Met/Cys was essentially performed as described previously. […] Newly translated proteins were metabolically labeled for 45 Minutes with methionine- and cysteine-free DMEM containing 0.2 mCi/ml [35S]-Met/Cys. Cells were then washed three times with PBS (37° C.) and incubated with DMEM for up to 24 hours.

[2] = system: Zebrafish larvae; test: Zebrafish teratotoxicity phenotype at 3 dpf; assay type: in vivo; conditions: for Phenotype after CD147 knock-down by morpholino: 0.1 mM or 0.25 mM morpholino injected, 3 dpf
Experimental: Briefly, Zebrafish larvae were injected with different concentrations of splice-Morpholinos targeting all 3 predicted CD147 isoforms in zebrafish or treated with 400 μM Thalidomide on the day of fertilization. On day and 3 after fertilization, the phenotypes of the larvae were analysed.
The wildtype strain AB was used in all experiments. All embryos were kept at 28.5° C. in E3 media (5 mM NaCl, 0.17 mM KCl, 0.33 mM CaCl2, 0.33 mM MgSO4) supplemented with 10^−5% methylene blue. All experiments were performed in accordance with animal protection standards of the Ludwig-Maximilians University Munich and were approved by the government of Upper Bavaria (Regierung von Oberbayem, Munich, Germany).
Knock-down of CD147 in zebrafish was done by microinjection of 2-4 pl of 0.1 mM or 0.25 mM antisense morpholino oligo (Gene Tools, LLC) targeting either a splice junction of CD147 (CD147 splice MO; exonic sequence in upper case: 5′-aagaggtgaagaacatacAAGTGTT-3′ (SEQ ID NO: 18) or the ATG start codon (CD147 ATG MO; 5′-[…]-3′ (SEQ. ID NO: 39) at the 1 cell stage. Injected eggs and controls were cultured at 28° C. in E3 buffer. For each experiment, 50 eggs were injected.
For thalidomide treatment, fertilized embryos were randomly split into two groups at 3 hours post fertilization (hpf): One group was transferred into E3 containing 0.1% DMSO, the other group into E3 with 400 μM thalidomide (Sigma-Aldrich) and kept at 28.5° C. for 3 days.
Larvae were analyzed for Phenotypes at 3 days post fertilization (dpf). For each experiment, 10 embryos were treated. CD147 splice MO-injected larvae were compared to control larvae and thalidomide treated larvae were compared to DMSO controls. Larvae were anesthetized with Tricaine (0.016% w/v) and mounted in 3% methylcellulose on coverslips. DIC images were taken with an Axioplan2 compound microscope (Zeiss).

[3] = system: CD147/MCT1 complex; test: Immunoblot analysis of CD147 and MCT1 protein levels in myeloma cells; assay type: cell-based, human; conditions: for Destabilization of CD147/MCT1: 100 nM pomalidomide, 100 μM thalidomide
Experimental: HEK 293T and HeLa cells were grown in Dulbecco's modified Eagle's Medium (DMEM), each media containing 10% fetal bovine serum. (FBS). The human multiple myeloma cell lines MM1.S, U266, KMS-12-BM, RPMI 8226 and JJN3 were cultured in RPMI-1640 with 10% FBS. […] Sf9 insect cells (Life technologies) were cultured in Sf-900 II serum-free medium (SFM, Life technologies) supplemented with 10% heat-inactivated FBS and 10 μg/ml gentamycin. High Five cells (Invitrogen) were cultured in Express Five SFM supplemented with 10 mM L-glutamine and 10 μg/ml gentamycin. All cells tested mycoplasma negative by a PCR detection method.
Cell samples were lysed in lysis buffer (NaCl 150 mM, Tris-HCl 50 mM, MgCl2 5 mM, EDTA 1 mM, INP-40 0.1%, Glycerol 5% and inhibitors) for whole cell lysates, immunoprecipitations or pulldown experiments. Details of extract preparation, immunoprecipitation, and immunoblotting, were previously described. Briefly, the cellular lysates were centrifuged 15 min at 14 000 rpm at 4° C. to separate from cellular debris. Protein concentration in the supernatants was measured before Laemmli buffer was added. The lysates were separated by SDS-PAGE and blotted onto PVDF (polyvinylidene difluoride) membranes. After blotting, PVDF membranes were stained With. Ponceau solution to evaluate protein loading. After washing and blocking unspecific bindings in 5% milk; the membranes were incubated with primary antibodies. After addition of horseradish peroxidase coupled secondary antibodies, western blot membranes were developed using the ECL (enhanced chemoluminescence) method (SuperSignal West reagents from Thermo Scientific). For immunoprecipitations (IPs), cell lysates were incubated with Flag-M2 agarose beads (Sigma) for Flag-IPs, HA-7 agarose beads (Sigma) for HA-IPs, or protein-A sepharose beads (GE Healthcare) together with primary rabbit antibodies for binding of endogenous proteins (e.g. for CRBN-IP). For the experiments using a protein cross linker, DSS (Pierce) was added to the cells to a final concentration of 1 mM for 45 minutes at RT. The Cross linker was quenched by addition of Tris-HCl, pH 7.5 20 mM and cell lysis was performed as described, with the only exception of HEPES buffer 50 mM, pH 7.5 instead of Tris-HCl buffer. After washing the beads four times in lysis buffer, Laemmli buffer was added and proteins were analyzed by SDS-electrophoresis.

[4] = system: IKZF1/3; test: Immunoblot analysis of IKZF1/IKZF3 in myeloma cells; assay type: cell-based, human; conditions: MM1S cells; 10 μM lenalidomide, 100 nM pomalidomide, 100 μM thalidomide
Experimental: HEK 293T and HeLa cells were grown in Dulbecco's modified Eagle's Medium (DMEM), each media containing 10% fetal bovine serum. […] The human multiple myeloma cell lines MM1.S, U266, KMS-12-BM, RPMI 8226 and JJN3 were cultured in RPMI-1640 with 10% FBS. […] Sf9 insect cells (Life technologies) were cultured in Sf-900 II serum-free medium (SFM, Life technologies) supplemented with 10% heat-inactivated FBS and 10 μg/ml gentamycin. High Five cells (Invitrogen) were cultured in Express Five SFM supplemented with 10 mM L-glutamine and 10 μg/ml gentamycin. All cells tested mycoplasma negative by a PCR detection method.
Cell samples were lysed in lysis buffer (NaCl 150 mM, Tris-HCl 50 mM, MgCl2 5 mM, EDTA 1 mM, INP-40 0.1%, Glycerol 5% and inhibitors) for whole cell lysates, immunoprecipitations or pulldown experiments. […] Briefly, the cellular lysates were centrifuged 15 min at 14 000 rpm at 4° C. to separate from cellular debris. Protein concentration in the supernatants was measured before Laemmli buffer was added. The lysates were separated by SDS-PAGE and blotted onto PVDF (polyvinylidene difluoride) membranes. After blotting, PVDF membranes were stained With. […] After washing the beads four times in lysis buffer, Laemmli buffer was added and proteins were analyzed by SDS-electrophoresis.

[5] = system: CD147; test: Semiquantitative RT-PCR verification of CD147 knockdown in zebrafish; assay type: in vivo; conditions: CD147 splice morpholino at indicated concentrations
Experimental: For verification of efficient CD147 knock-down in zebrafish embryos, total RNA of larvae injected with CD147 splice morpholino or control was extracted using the QIAshredder and RNeasy Kit (both Qiagen); cDNA synthesis was performed as described above. PCR reactions were performed on the peqSTAR2x gradient thermocycler (Peqlab) following standard procedures and using the following primers: […]
One fifth of the PCR reaction was loaded onto an agarose gel and subjected to gel electrophoresis.

[6] = system: MM cell lines; test: Cell proliferation / survival of MM cells (trypan blue exclusion); assay type: cell-based, human; conditions: sensitive cells (MM1S), 10 μM lenalidomide, 72 hours
Experimental: MM cells were subjected to treatment with lenalidomide/DMSO for the indicated times or infected with lentiviral-shRNA. On days indicated, proliferation was assessed using the trypan blue exclusion method. Results are presented as ratios to DMSO, wildtype or sh_scramble controls.

[7] = system: CD147; test: CD147 surface expression on erythropoiesis in MDS patient bone marrow (flow cytometry); assay type: in vivo, human; conditions: del(5q) MDS patients on lenalidomide treatment vs untreated del(5q) and non-del(5q) MDS
Excerpt: After informed consent, bone marrow samples from patients with MDS were collected in heparin, lysed with Versalyse® (Beckman Coulter, Krefeld, Germany), stained with anti-human monoclonal fluorochrome-conjugated antibodies and analyzed by flow-cytometry on a Cytomics FC 500 analyzer (Beckman Coulter). The following antibodies were used: Beckman Coulter: CD45-ECD (clone J33), CD33-PE (clone D3HL60.251), CD14-PECy5 (clone RM052), CD7-PE (clone 8H8.1), CD3-PECy5 (clone UCHT1), CD19-PECy7 (clone J4,119), CD7-PE, GlyA-PE (clone 11E4B-7-6), CD34-PECy7 (clone 581) and CD147-FITC (clone HIM6) from BD Biosciences. Using a CD45 vs, SSC gating strategy monocytes, lymphocytes, granulocytes, progenitor cells and CD45low/-GlyA+ cells were identified, Gates were then placed on CD19+ B-cells, CD3+ and CD3-CD7+ NK cells within the lymphocyte gate; on CD33+ granulocytes and CD14+ monocytes; on CD45low/CD33+ CD34+ progenitor cells and on CD45low/-GlyA+ erythropoiesis. CD147 expression of CD45low/-GlyA+ erythropoiesis was then determined by histogram gating. Data are represented as median fluorescence intensity of CD147 relative to isotype-matched control. Data were analyzed using Kaluza® Flow Analysis Software (Beckman Coulter).

[8] = system: MM cell lines; test: Intra- and extracellular lactate measurement in MM cells; assay type: cell-based, human
Experimental: For analysis of intra- and extracellular lactate, lenalidomide or DMSO treated cells were centrifuged down. For extracellular lactate, the supernatant was collected and frozen; normal cell culture medium was used as control for normalization. For measurement of intracellular lactate, cell pellets were lysed in lysis buffer. Lactate content in cell lysates as well as in the supernatants were analysed with the cobas 8000 (Roche).

[9] = system: VEGF; test: VEGF secretion in MM cell culture supernatants (ELISA); assay type: cell-based, human; conditions: 10 μM, 96 h
Excerpt: (§1) Supernatants were collected and snap-frozen for subsequent analysis. VEGF and MMP7 concentrations were, determined in an enzyme linked immunosorbent assay (ELISA) using kits RAB0507, and RAB0369 (VEGF and MMP7 respectively, both Sigma) according to the manufacturer's instructions. Results were normalized to protein concentration of corresponding cell lysates.

[10] = system: CD147; test: Flow cytometry of CD147 cell surface expression in MM1S cells; assay type: cell-based, human; conditions: lenalidomide 10 μM
Experimental: The secondary antibody was […] anti mouse IgG. After washing, stained cells were analysed for CD147 expression using a FACSCalibur (Becton Dickinson).

[11] = system: del(5q) MDS bone marrow derived CD34+ cells; test: Apoptosis (Annexin V/PI) in in vitro propagated del(5q) MDS CD34+ cells; assay type: cell-based, human; conditions: 10 μM lenalidomide, erythroid differentiation, non-erythroid vs early erythroid (CD36+) cells
Experimental: Mononuclear cells from bone marrow aspirates were enriched for CD34^+ cells by magnetic bead selection (MACS, MiltenylBiotech) according to the manufacturer's instructions. CD34^+ cells were differentiated along the erythroid lineage essentially as known in the art. […] On day 7, 2 IU/ml erythropoietin (EPO Janssen-CILAG GmbH) was added to the cultures to stimulate erythropoiesis. Half medium changes were performed every third day and cells were harvested on day 14.
Cells were collected and washed with Annexin/PI buffer containing […], 1.62 mM CaCl2. Cell pellets were stained with CD34-FITC (BD Pharmingen, clone 581/CD34), CD147-PE (BD Pharmingen, done HIM6), CD33-PC5.5 (Beckmann Coulter, clone D3HL60.251), CD45 PE Cy7 (eBioscience, clone H130), CD36-APC Cy7 (BioLegend, clone 336213), primary CD235α-biotin (eBioscience, clone HIR2) and secondary streptavidin eFluor®450 (eBioscience) antibodies according to manufacturer's instructions. The combination of APC Annexin V (BD Pharmingen) and PI was added for the determination of apoptosis and necrosis. Single stained samples were used for compensation.
Flow cytometry was performed on a CyAn ADP LxP8 (Coulter-Cytomation) and data were analyzed using FlowJo software (TreeStar Inc.).

[12] = system: MMP7; test: MMP7 secretion in MM cell culture supernatants (ELISA); assay type: cell-based, human; conditions: 10 μM, 96 h
Excerpt: as §1

[13] = lenalidomide-sensitive MM cell lines

NS(=O)(=O)OC[C@@H]1C[C@@H](n2ccc3c(N[C@H]4CCc5ccccc54)ncnc32)C[C@@H]1O [MLN4924]
CD147 stability or processing [1]: no effect

O=C1CCC(N2C(=O)c3ccccc3C2=O)C(=O)N1 (stereo not drawn) [thalidomide, α-N-phthalimido-glutarimide]
Teratotoxic phenotype ([2]; 400 μM thalidomide, 3 days post fertilization): teratotoxic phenotype, including reduced size of head, fins, and eyes
Destabilization of CD147/MCT1 ([3]; MM1S cells, 10 μM lenalidomide): destabilize CD147/MCT1
IKZF1/3 degradation [4]: restricted to lenalidomide and pomalidomide

Nc1cccc2c1C(=O)N(C1CCC(=O)NC1=O)C2=O (centres unmarked) [pomalidomide]
Destabilization of CD147/MCT1 ([3]; MM1S cells, 10 μM lenalidomide): destabilize CD147/MCT1
IKZF1/3 degradation [4]: restricted to lenalidomide and pomalidomide

splice MO: antisense morpholino oligo targeting a splice junction of CD147, 5′-aagaggtgaagaacatacAAGTGTT-3′ (SEQ ID NO: 18) (antisense AAGAGGTGAAGAACATACAAGTGTT; all phosphorodiamidate morpholino (PMO))
Phenotype after CD147 knock-down by morpholino [2]: identical phenotypes as thalidomide treatment
CD147 knockdown (RT-PCR) [5]: efficient and dose dependent CD147 knockdown

Nc1cccc2c1CN(C1CCC(=O)NC1=O)C2=O (centres unmarked) [lenalidomide]
Anti-myeloma effect of lenalidomide under induced overexpression of CD147 and MCT1 [6]: attenuated
CD147 surface expression in the erythropoietic compartment [7]: attenuated to the level of non-del(5q) MDS samples
Intracellular lactate levels [8, 13]: significantly elevated
Intracellular lactate levels ([8]; resistant MM cell lines): only minor effects
VEGF secretion [9, 13]: significantly reduced
VEGF secretion ([9]; resistant MM cell lines): only minor effects
Level of immature, core-glycosylated form of CD147 ([3]; MM1S cells, 10 μM lenalidomide, time course): progressive accumulation
Dose dependence of CD147 and MCT1 destabilization ([3]; MM1S cells, different concentrations, 72 hours): destabilizes CD147 and MCT1 in a dose dependent manner
Destabilization of CD147/MCT1 ([3]; MM1S cells, 10 μM lenalidomide): destabilize CD147/MCT1
CD147 and MCT1 expression upon lenalidomide exposure ([3]; lenalidomide-resistant MM lines (KMS12BM, RPMI 8226)): remained unchanged
CD147 and MCT1 stability upon lenalidomide exposure ([3]; lenalidomide-sensitive MM lines (MM1S, U266)): destabilization of CD147 and MCT1
CD147 cell surface expression [10]: decreased
Lenalidomide-induced apoptosis by cell compartment [11]: largely restricted to early erythroid cells
CD147 de novo synthesis [1]: no effect
CD147 glycosylation as readout for maturation and membrane localization [1]: substantially impaired
MMP7 secretion [12, 13]: significantly reduced
MMP7 secretion ([12]; resistant MM cell lines): only minor effects

ATG MO: antisense morpholino oligo targeting the ATG start codon of CD147, 5′-GCGCCAAAGAGCTTCTTTTCCATGC-3′ (SEQ. ID NO: 39) (all phosphorodiamidate morpholino (PMO))
Phenotype after CD147 knock-down by morpholino [2]: identical phenotypes as thalidomide treatment
